From patent publication US9670197B2, “Small molecule modifiers of the Hec1-Nek2 interaction in G2/M” (The Regents of the University of California, priority 2013, dated 2017)

Columns and labels:
[1] = test system: cancer cell lines; assay: Cancer cell growth inhibition; format: cell-based
[2] = test system: PLK1; assay: PLK1 expression in treated HeLa cells, western blot; format: cell-based; settings: dose series
Procedure: INH-induced Nek2 degradation; INH-inhibition of Hec1 phosphorylation by Nek2. […] To evaluate whether INH treatment affected cell cycle profile or Nek2 mRNA level, we performed FACS and real-time PCR analysis.
(§1) Protein extraction and western blot analysis. The protein extractions and western blot analyses of Examples 4-6 were conducted as follows. Cell extracts were prepared and equal amounts of protein were separated by SDS-PAGE (10% w/v gel) followed by electrophoretic transfer to PVDF membranes (Millipore, Billerica, Mass.). After blocking with 5% w/v powdered non-fat milk, the membrane was incubated with different antibodies for overnight at 4° C. and treated for 1 hr with horseradish peroxidase-conjugated goat anti-mouse IgG and goat anti-rabbit IgG antibodies (GeneTex, Irvine, Calif.). ECL detection of the horseradish peroxidase reaction was performed according to the manufacturer's instructions (Millipore, Billerica, Mass.). Protein signal was measured on a LAS 4000 mini Imaging System (Fujifilm, Valhalla, N.Y.).

[3] = test system: MCF10A; assay: Growth inhibition, normal mammary epithelial MCF10A; format: cell-based; settings: for IC50: Homo sapiens, MCF-10A, Table 2, Epithelial, MCF10A, read-out: cell growth suppression; for growth inhibitory effect on non-tumorgenic epithelial cells: data not shown
Procedure: (§2) Cell lines and establishment of stable cell lines. Human breast cancer cell lines MDA-MB-231 and MDA-MB-468, osteosarcoma line U20S, cervical adenocarcinoma line HeLa, and normal skin fibroblast Hs27 were maintained in DMEM medium (Invitrogen, Grand Island, N.Y.) supplemented 10% fetal bovine serum (FBS) and 1% penicillin-streptomycin. The leukemia cell line K562 and glioblastoma cell line T98G were grown in RPMI 1640 supplemented 10% FBS and 1% penicillin-streptomycin. Normal mammary gland epithelial cell line MCF10A was cultured in DMEM/F12 (50:50) plus 5% horse serum, 0.1 μg/mL cholera toxin, 10 μg/mL insulin, 0.5 μg/mL hydrocortisone, and 20 ng/mL epidermal growth factor. To establish MDA-MB-468 cells that stably expressed each individual GFP-Hec1 deletion construct described above, cells were infected with retrovirus expressing GFP-Hec1 WT, GFP-Hec1 W395A and GFP-Hec1 WLK/AAA, and were selected with 2 μg/ml puromycin.

[4] = test system: MB468; assay: Cancer cell growth inhibition, MB468 (MDA-MB-468); format: cell-based; settings: Homo sapiens, Table 2, Breast adenocarcinoma, read-out: cancer cell growth suppression
[5] = test system: HeLa cells; assay: Mitotic abnormalities in HeLa cells; format: cell-based, human; settings: for chromosomal misalignment: 24 hrs of treatment, versus DMSO
Description: INH-triggered mitotic catastrophe. […] Error bars represent SE, n=>200 per sample in FIG. 3A. […] Error bars represent SE n=200 in FIG. 3B. Over time, the accumulation of chromosomal and spindle abnormalities led to cell death.

[6] = target: T1, Nek2 (Homo sapiens, UniProt P51955); assay: Biotin-conjugated INH pull-down, Nek2; format: binding
T1 construct: endogenous in cells; host or cells: HeLa
T1 sequence (P51955 1-445): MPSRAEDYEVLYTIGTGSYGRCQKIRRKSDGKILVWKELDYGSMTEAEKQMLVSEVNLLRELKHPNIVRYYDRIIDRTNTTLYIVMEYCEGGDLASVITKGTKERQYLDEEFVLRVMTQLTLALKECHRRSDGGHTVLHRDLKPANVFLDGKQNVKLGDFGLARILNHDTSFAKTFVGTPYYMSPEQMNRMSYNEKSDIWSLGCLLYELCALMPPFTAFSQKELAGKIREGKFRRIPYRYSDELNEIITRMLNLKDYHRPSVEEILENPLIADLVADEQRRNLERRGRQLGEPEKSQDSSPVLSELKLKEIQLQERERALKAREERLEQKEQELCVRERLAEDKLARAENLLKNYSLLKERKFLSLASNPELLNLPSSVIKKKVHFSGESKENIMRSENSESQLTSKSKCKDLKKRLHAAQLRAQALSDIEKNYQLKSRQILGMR

[7] = test system: MDA-MB-231; assay: Cancer cell growth inhibition, MDA-MB-231; format: cell-based; settings: Homo sapiens, Table 2, Breast adenocarcinoma, read-out: cancer cell growth suppression
Procedure: as §2

[8] = test system: HeLa; assay: Cancer cell growth inhibition, HeLa; format: cell-based; settings: Homo sapiens; Table 2, Cervical, HeLa; read-out: cancer cell growth suppression
Procedure: as §2

[9] = test system: HS27; assay: Growth inhibition, normal skin fibroblast HS27; format: cell-based; settings: for IC50: Homo sapiens, Table 2, Fibroblast, HS27, read-out: cell growth suppression; for growth inhibitory effect on non-tumorgenic fibroblast cells: data not shown
Procedure: as §2

[10] = test system: pS165 Hec1; assay: Phosphorylated Hec1 (pS165 Hec1) level in treated HeLa cells; format: cell-based; settings: 1 μM, 4 to 24 hours
Procedure: as §1
The following antibodies were used in the experiments described in Examples 4-6. Mouse anti-Hec1 clone 9G3, mouse anti-Nek2, mouse anti-myc, mouse anti-PLK1, mouse anti-p84, mouse anti-GAPDH, rabbit anti-Aurora A and rabbit anti-cyclin B1 antibodies (GeneTex, Irvine, Calif.), mouse anti-GFP (Roche, Indianapolis, Ind.), human anti-ACA (Antibodies Inc., Davis, Calif.), mouse anti-alpha-tubulin, rabbit anti-gamma tubulin (Sigma-Aldrich, St. Louis, Mo.), and secondary antibodies conjugated with Alexa dyes (Invitrogen, Grand Island, N.Y.). […]

[11] = test system: K562; assay: Cancer cell growth inhibition, K562 leukemia; format: cell-based; settings: Homo sapiens, Table 2, Leukemia, read-out: cancer cell growth suppression
Procedure: as §2

SMILES | inhibition of cancer cell growth, IC50 (in words) [1] | expression of PLK1 [2] | IC50 [3] | growth inhibitory effect on non-tumorgenic epithelial cells [3] | IC50 [4] | chromosomal misalignment [5] | multipolar spindle configurations in the mitotic population ([5]; time course) | interaction with Nek2 in pull-down [6] | IC50 [7] | IC50 [8] | IC50 [9] | growth inhibitory effect on non-tumorgenic fibroblast cells [9] | phosphorylated Hec1 levels (pS165 Hec1) [10] | IC50 [11]
Cc1cc(C)c(-c2csc(C(=O)c3ccncc3)n2)c(C)c1 [INH41, (4-mesitylthiazol-2-yl)(pyridin-4-yl)methanone] | sub-micromolar IC50 | not affected | 58000 nM | Neither INH41 nor INH154 had significant growth inhibitory effects | 690 nM | increased chromosomal misalignment | aggravated in a time-dependent manner | Nek2 does not interact | 400 nM | 670 nM | 62000 nM | Neither INH41 nor INH154 had significant growth inhibitory effects | notably reduced in a time-dependent fashion | 620 nM
Cc1cc(N2CCCCC2)cc(C)c1-c1csc(NC(=O)c2ccncc2)n1 [INH154, N-(4-(2,6-Dimethyl-4-(piperidin-1-yl)phenyl)thiazol-2-yl)isonicotinamide] | sub-micromolar IC50 | not affected | 36000 nM | Neither INH41 nor INH154 had significant growth inhibitory effects | – | increased chromosomal misalignment | – | Nek2 does not interact | 140 nM | – | 40000 nM | Neither INH41 nor INH154 had significant growth inhibitory effects | notably reduced in a time-dependent fashion | 110 nM
